Data taken from patent US20260191858A1, “COMBINATION THERAPIES” (Kallyope, Inc., priority 2022, published 2026).

Target: T1, human GPR119 (hGPR119) (Homo sapiens, UniProt Q8TDV5)
T1 construct: expressed in transfected cells; host or cells: CHO-K1
T1 sequence (Q8TDV5 1-335): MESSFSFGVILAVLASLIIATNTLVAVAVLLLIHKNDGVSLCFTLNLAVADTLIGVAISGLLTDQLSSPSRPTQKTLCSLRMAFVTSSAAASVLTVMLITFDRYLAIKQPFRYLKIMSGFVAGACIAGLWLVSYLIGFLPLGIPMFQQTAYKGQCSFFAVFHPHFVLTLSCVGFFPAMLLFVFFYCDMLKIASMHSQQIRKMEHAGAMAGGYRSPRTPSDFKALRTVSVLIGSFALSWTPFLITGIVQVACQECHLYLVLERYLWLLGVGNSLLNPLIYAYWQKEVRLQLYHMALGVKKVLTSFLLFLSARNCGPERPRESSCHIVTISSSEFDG
Assay: cAMP accumulation assay in CHO-K1 cells stably expressing hGPR119
Type: cell-based
Details: cAMP HTRF, 60 minutes
Method: CHO-K1 cells stably expressing human GPR119 (hGPR119) were prepared by transfection of a GPR119-carrying plasmid using Lipofectamine 2000 (following manufacturer instructions). A stable cell line was established using the limiting dilution method with geneticine selection. Assay-ready frozen (ARF) cells were prepared and used throughout the study.
The assay was performed in a 384-well plate format using the CAMP Gs dynamic assay kit from Cisbio. ARF cells expressing hGPR119 were thawed, washed and then resuspended in CAMP stimulation buffer at a cell density of 1.1×10^6 cells/mL. Cells were plated at a density of ~10,000 cells/well (9 μL/well). Dose response curves for the tested compounds were prepared in a cAMP stimulation buffer, containing 0.1% Tween 80 at 4 fold the final concentration. The compounds were then transferred to the cell plates using BRAVO (3 μL/well) and the plates were incubated for 60 minutes at 37° C./5% CO2. Detection buffer (10 μL, prepared as described in the CAMP Gs dynamic kit) were added to each well, and the plates were incubated at ambient temperature for 1 hr.
RT-FRET was measured using a ClarioSTAR plate reader, calculating the ratio between emissions at 665 nm and 620 nm (HTRF ratio). The HTRF ratio for positive (Max) and negative (Min) controls were used to normalize HTRF data and generate values for % activity. EC50 and Max activity values were determined using a standard 4-parameter fit.

## NCCOCCOCCNCC1CN(C(=O)Cc2ccc(OCCCC3CCN(c4ncc(Cl)cn4)CC3)cc2F)C1 [Compound A24, 1-[3-[[2-[2-(2-aminoethoxy)ethoxy]ethylamino]methyl]azetidin-1-yl]-2-[4-[3-[1-(5-chloropyrimidin-2-yl)-4-piperidyl]propoxy]-2-fluoro-phenyl]ethanone]
  EC50: 100 to 1000 nM

## O=C(CC1CN(C(=O)Cc2ccc(OCCCC3CCN(c4ncc(Cl)cn4)CC3)cc2F)C1)NC[C@H](O)[C@@H](O)[C@H](O)[C@H](O)CO (racemic) [Compound A11, 2-[1-[2-[4-[3-[1-(5-chloropyrimidin-2-yl)-4-piperidyl]propoxy]-2-fluoro-phenyl]acetyl]azetidin-3-yl]-N-[rac-(2S,3R,4R,5R)-2,3,4,5,6-pentahydroxyhexyl]acetamide]
  EC50: 100 to 1000 nM

## CCCc1cnc(N2CCC(CCCOc3cc(F)c(CC(=O)N4CC(CNCC(O)(CO)CO)C4)c(F)c3)CC2)nc1 [Compound A45, 2-(2,6-difluoro-4-(3-(1-(5-propylpyrimidin-2-yl)piperidin-4-yl)propoxy)phenyl)-1-(3-(((2,3-dihydroxy-2-(hydroxymethyl)propyl)amino)methyl)azetidin-1-yl)ethan-1-one]
  EC50: ≤ 100 nM

## CCCc1cnc(N2CCC(CCCOc3cc(F)c(CC(=O)N4CC(CNC[C@H](O)[C@@H](O)[C@H](O)[C@H](O)CO)C4)c(F)c3)CC2)nc1 [Compound A48, 2-(2,6-difluoro-4-(3-(1-(5-propylpyrimidin-2-yl)piperidin-4-yl)propoxy)phenyl)-1-(3-((((2S,3R,4R,5R)-2,3,4,5,6-pentahydroxyhexyl)amino)methyl)azetidin-1-yl)ethan-1-one]
  EC50: ≤ 100 nM

## O=C(Cc1ccc(OCCCC2CCN(c3ncc(Cl)cn3)CC2)cc1F)N1CC(CN[C@@H]2C[C@H](O)[C@@H](O)[C@H]2O)C1 (racemic) [Compound A21, 2-[4-[3-[1-(5-chloropyrimidin-2-yl)-4-piperidyl]propoxy]-2-fluoro-phenyl]-1-[3-[[[rac-(1R,2S,3R,4S)-2,3,4-trihydroxycyclopentyl]amino]methyl]azetidin-1-yl]ethanone]
  EC50: 100 to 1000 nM

## O=C(Cc1ccc(OCCCC2CCN(c3ncc(CO)cn3)CC2)cc1F)N1CC(CNC[C@H](O)[C@@H](O)[C@H](O)[C@H](O)CO)C1 [Compound A55, 2-[2-fluoro-4-[3-[1-[5-(hydroxymethyl)pyrimidin-2-yl]-4-piperidyl]propoxy]phenyl]-1-[3-[[[(2S,3R,4R,5R)-2,3,4,5,6-pentahydroxyhexyl]amino]methyl]azetidin-1-yl]ethanone]
  EC50: 1000 to 10000 nM

## CCc1cnc(N2CCC(CCCOc3ccc(CC(=O)N4CC(CNCC(O)(CO)CO)C4)c(F)c3)CC2)nc1 [Compound A33, 1-(3-(((2,3-dihydroxy-2-(hydroxymethyl)propyl)amino)methyl)azetidin-1-yl)-2-(4-(3-(1-(5-ethylpyrimidin-2-yl)piperidin-4-yl)propoxy)-2-fluorophenyl)ethan-1-one]
  EC50: ≤ 100 nM

## O=C(Cc1ccc(OCCCC2CCN(c3ncc(Cl)cn3)CC2)cc1F)N1CC(CN2C[C@@H](O)[C@H](O)C2)C1 (stereo in doubt) [Compound A19, 2-[4-[3-[1-(5-chloropyrimidin-2-yl)-4-piperidyl]propoxy]-2-fluoro-phenyl]-1-[3-[[rac-(3R,4R)-3,4-dihydroxypyrrolidin-1-yl]methyl]azetidin-1-yl]ethanone]
  EC50: ≤ 100 nM

## O=C(Cc1ccc(OCCCC2CCN(c3ncc(Cl)cn3)CC2)cc1F)N1CC(CCNCC(CO)CO)C1 [Compound A27, 2-(4-(3-(1-(5-chloropyrimidin-2-yl)piperidin-4-yl)propoxy)-2-fluorophenyl)-1-(3-(2-((3-hydroxy-2-(hydroxymethyl)propyl)amino)ethyl)azetidin-1-yl)ethan-1-one]
  EC50: ≤ 100 nM

## O=C(NC[C@H](O)[C@@H](O)[C@H](O)[C@H](O)CO)C1CN(C(=O)Cc2ccc(OCCCC3CCN(c4ncc(Cl)cn4)CC3)cc2F)C1 (racemic) [Compound A10, 1-[2-[4-[3-[1-(5-chloropyrimidin-2-yl)-4-piperidyl]propoxy]-2-fluoro-phenyl]acetyl]-N-[rac-(2S,3R,4R,5R)-2,3,4,5,6-pentahydroxyhexyl]azetidine-3-carboxamide]
  EC50: 100 to 1000 nM

## O=C(Cc1ccc(OCCCC2CCN(c3ncc(Cl)cn3)CC2)cc1F)N1CC(CN2C[C@@H](O)[C@@H](O)C2)C1 [Compound A20, 2-[4-[3-[1-(5-chloropyrimidin-2-yl)-4-piperidyl]propoxy]-2-fluoro-phenyl]-1-[3-[rac-(3S,4R)-3,4-dihydroxypyrrolidin-1-yl]methyl]azetidin-1-yl]ethanone]
  EC50: ≤ 100 nM

## CCCc1cnc(N2CCC(CCCOc3ccc(CC(=O)N4CC(CNC(CO)(CO)CO)C4)c(F)c3)CC2)nc1 [Compound A42, 1-(3-(((1,3-dihydroxy-2-(hydroxymethyl)propan-2-yl)amino)methyl)azetidin-1-yl)-2-(2-fluoro-4-(3-(1-(5-propylpyrimidin-2-yl)piperidin-4-yl)propoxy)phenyl)ethan-1-one]
  EC50: ≤ 100 nM

## O=C(NC(CO)CO)C1CN(C(=O)Cc2ccc(OCCCC3CCN(c4ncc(Cl)cn4)CC3)cc2F)C1 [Compound A3, 1-[2-[4-[3-[1-(5-chloropyrimidin-2-yl)-4-piperidyl]propoxy]-2-fluoro-phenyl]acetyl]-N-[2-hydroxy-1-(hydroxymethyl)ethyl]azetidine-3-carboxamide]
  EC50: 100 to 1000 nM

## O=C(CC1CN(C(=O)Cc2ccc(OCCCC3CCN(c4ncc(Cl)cn4)CC3)cc2F)C1)NCCS(=O)(=O)O [Compound A68, 2-[[2-[1-[2-[4-[3-[1-(5-chloropyrimidin-2-yl)-4-piperidyl]propoxy]-2-fluoro-phenyl]acetyl]azetidin-3-yl]acetyl]amino]ethanesulfonic acid]
  EC50: 100 to 1000 nM

## CCc1cnc(N2CCC(CCCOc3ccc(CC(=O)N4CC(CNCCNC(=O)NC(CO)(CO)CO)C4)c(F)c3)CC2)nc1 [Compound A35, 1-(1,3-dihydroxy-2-(hydroxymethyl)propan-2-yl)-3-(2-(((1-(2-(4-(3-(1-(5-ethylpyrimidin-2-yl)piperidin-4-yl)propoxy)-2-fluorophenyl)acetyl)azetidin-3-yl)methyl)amino)ethyl)urea]
  EC50: ≤ 100 nM

## O=C(Cc1ccc(OCCCC2CCN(c3ncc(Cl)cn3)CC2)cc1F)N1CC(CNCC(O)(CO)CO)C1 [Compound A15, 2-[4-[3-[1-(5-chloropyrimidin-2-yl)-4-piperidyl]propoxy]-2-fluoro-phenyl]-1-[3-[[[2,3-dihydroxy-2-(hydroxymethyl)propyl]amino]methyl]azetidin-1-yl]ethanone]
  EC50: ≤ 100 nM

## CCCc1cnc(N2CCC(CCCOc3cc(F)c(CC(=O)N4CC(CNCCNC(=O)NC(CO)(CO)CO)C4)c(F)c3)CC2)nc1 [Compound A47, 1-(2-(((1-(2-(2,6-difluoro-4-(3-(1-(5-propylpyrimidin-2-yl)piperidin-4-yl)propoxy)phenyl)acetyl)azetidin-3-yl)methyl)amino)ethyl)-3-(1,3-dihydroxy-2-(hydroxymethyl)propan-2-yl)urea]
  EC50: 100 to 1000 nM

## O=C(NC(CO)(CO)CO)C1CN(C(=O)Cc2c(F)cc(OCCCC3CCN(c4ncc(Cl)cn4)CC3)cc2F)C1 [Compound A1, 1-[2-[4-[3-[1-(5-chloropyrimidin-2-yl)-4-piperidyl]propoxy]-2,6-difluoro-phenyl]acetyl]-N-[2-hydroxy-1,1-bis(hydroxymethyl)ethyl]azetidine-3-carboxamide]
  EC50: ≤ 100 nM
